From patent US8263606B2 (Xenon Pharmaceuticals Inc., priority 2008, dated 2012)

Columns and labels:
CYP3A4 = CYP3A4 (Homo sapiens, UniProt P08684); assay: Cytochrome P450 (CYP450) Inhibition Assay, CYP3A4 (Vivid fluorescence, BOMCC substrate); details: human, P450 Baculosomes (recombinant CYP3A4), probe BOMCC (Vivid substrate)
sodium channel = assay: Guanidine influx assay (14C-guanidine radiotracer flux, in vitro); type: cell-based, human or rat; details: guanidine influx assay using a known cell line that expresses a sodium channel
Text: This example describes an in vitro assay for testing and profiling test agents against human or rat sodium channels stably expressed in cells of either an endogenous or recombinant origin. The assay is also useful for determining the IC50 of a sodium channel blocking compound. The assay is based on the guanidine flux assay described by Reddy, N. L., et al., J. Med. Chem. (1998), 41(17):3298-302.
The guanidine influx assay is a radiotracer flux assay used to determine ion flux activity of sodium channels in a high-throughput microplate-based format. The assay uses ^14C-guanidine hydrochloride in combination with various known sodium channel modulators, to assay the potency of test agents. Potency is determined by an IC50 calculation. Selectivity is determined by comparing potency of the compound for the channel of interest to its potency against other sodium channels (also called ‘selectivity profiling’).
Each of the test agents is assayed against cells that express the channels of interest. Voltage gated sodium channels are either TTX sensitive or insensitive. This property is useful when evaluating the activities of a channel of interest when it resides in a mixed population with other sodium channels. The following Table 1 summarizes cell lines useful in screening for a certain channel activity in the presence or absence of TTX.
It is also possible to employ recombinant cells expressing these sodium channels. Cloning and propagation of recombinant cells are known to those skilled in the art (see, for example, Klugbauer, N, et al., EMBO J. (1995), 14(6):1084-90; and Lossin, C., et al., Neuron (2002), 34, pp. 877-884).
Cells expressing the channel of interest are grown according to the supplier or in the case of a recombinant cell in the presence of selective growth media such as G418 (Gibco/Invitrogen). The cells are disassociated from the culture dishes with an enzymatic solution (Ix) Trypsin/EDTA (Gibco/Invitrogen) and analyzed for density and viability using haemocytometer (Neubauer). Disassociated cells are washed and resuspended in their culture media then plated into Scintiplates (Beckman Coulter Inc.) (approximately 100,000 cells/well) and incubated at 37° C./5% CO2 for 20-24 hours. After an extensive wash with Low sodium HEPES-buffered saline solution (LNHBSS) (150 mM Choline Chloride, […] (Sigma), 1 mM Calcium Chloride, 5 mM Potassium Chloride, 1 mM Magnesium Chloride, 10 mM Glucose) agents diluted with LNHBSS are added to each well. (Varying concentrations of test agent may be used). The activation/radiolabel mixture contains aconitine (Sigma) to increase the percentage of time that the sodium channels are open, and ^14C-guanidine hydrochloride (ARC) to measure flux through the voltage-gated sodium channels.
After loading the cells with test agent and activation/radiolabel mixture, the Scintiplates are incubated at ambient temperature. Following the incubation, the Scintplates are extensively washed with LNHBSS supplemented with guanidine (Sigma). The Scintiplates are dried and then counted using a Wallac MicroBeta TriLux (Perkin-Elmer Life Sciences). The ability of the test agent to block sodium channel activity is determined by comparing the amount of ^14C-guanidine present inside the cells expressing the different sodium channels.
The IC50 value of a test agent for a specific sodium channel may be determined using the above general method. […] Typically the mid-point concentration of test agent is set at 1 μM, and sequential concentrations of half dilutions greater or smaller are applied (e.g. 0.5 μM; 5 μM and 0.25 μM; 10 μM and 0.125 μM; 20 μM etc.). The IC50 curve is calculated using the 4 Parameter Logistic Model or Sigmoidal Dose-Response Model formula (fit=(A+((B−A)/(1+((C/x)^D)))).
The fold selectivity, factor of selectivity or multiple of selectivity, is calculated by dividing the IC50 value of the test sodium channel by the reference sodium channel, for example, Nav1.5. […]

CYP3A4, sequence (P08684 whole entry): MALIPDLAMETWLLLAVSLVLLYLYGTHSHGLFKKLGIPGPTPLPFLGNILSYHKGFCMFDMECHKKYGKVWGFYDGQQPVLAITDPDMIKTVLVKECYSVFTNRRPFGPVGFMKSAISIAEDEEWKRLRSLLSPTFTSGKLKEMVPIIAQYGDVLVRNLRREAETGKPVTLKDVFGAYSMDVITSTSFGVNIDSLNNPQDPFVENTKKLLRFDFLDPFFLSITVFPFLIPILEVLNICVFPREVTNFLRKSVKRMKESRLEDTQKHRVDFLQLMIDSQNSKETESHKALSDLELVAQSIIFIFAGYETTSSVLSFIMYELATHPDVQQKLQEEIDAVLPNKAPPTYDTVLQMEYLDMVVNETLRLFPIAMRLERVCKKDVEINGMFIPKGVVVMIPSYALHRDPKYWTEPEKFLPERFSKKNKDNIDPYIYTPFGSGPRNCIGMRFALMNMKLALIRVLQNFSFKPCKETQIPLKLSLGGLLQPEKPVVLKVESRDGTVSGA

| SMILES | inhibition at 10 µM (CYP3A4) | IC50 (sodium channel; activity level class) | IC50 (sodium channel) |
| --- | --- | --- | --- |
| O=C1N(Cc2ncccc2C(F)(F)F)c2ccccc2C12COc1cc3c(c(F)c12)OCCO3 (stereo not drawn) [Example 5.26, 9-fluoro-1′-{[3-(trifluoromethyl)pyridin-2-yl]methyl}-2,3-dihydrospiro[furo[2,3-g][1,4]benzodioxine-8,3′-indol]-2′(1′H)-one] | < 50% | 0.001 to 0.1 µM |  |
| CC1(C)COC(C)(CCN2C(=O)C3(COc4cc5c(cc43)OCCO5)c3ccccc32)OC1 (stereo not drawn) [Example 7.28] | > 50% | 0.001 to 0.1 µM |  |
| N#Cc1cccc2c1C1(COc3cc4c(cc31)CCO4)C(=O)N2C[C@H]1CCCO1 (stereo partly drawn) [Example 11.35, 2′-oxo-1′-[(2R)-tetrahydrofuran-2-ylmethyl]-1′,2′,5,6-tetrahydrospiro[benzo[1,2-b:5,4-b′]difuran-3,3′-indole]-4′-carbonitrile] | < 50% |  | 0.1 to 1 µM |
| NC(=O)c1cccc(CN2C(=O)C3(COc4cc5c(cc43)OCCO5)c3ccccc32)n1 (stereo not drawn) [Example 42, 6-[(2′-oxo-2,3-dihydrospiro[furo[2,3-g][1,4]benzodioxine-8,3′-indol]-1′(2′H)-yl)methyl]pyridine-2-carboxamide] | > 50% |  | 0.001 to 0.1 µM |
| COc1ccc2c(c1)OCC21C(=O)N(CC2CCCCO2)c2ccccc21 (stereo not drawn) [Example 9.36, 6-methoxy-1′-(tetrahydro-2H-pyran-2-ylmethyl)spiro[1-benzofuran-3,3′-indol]-2′(1′H)-one] | < 50% | 0.001 to 0.1 µM |  |
| CCc1ccc(NC(=O)CN2C(=O)C3(COc4cc5c(cc43)CCO5)c3ccccc32)cc1 (stereo not drawn) [Example 12.47, N-(4-ethylphenyl)-2-(2′-oxo-5,6-dihydrospiro[benzo[1,2-b:5,4-b′]difuran-3,3′-indol]-1′(2′H)-yl)acetamide] | < 50% |  | 1 to 10 µM |
| Cn1nnc2cc(CN3C(=O)C4(COc5cc6c(cc54)OCCO6)c4ccccc43)ccc21 (stereo not drawn) [Example 7.23, 1′-[(1-methyl-1H-benzotriazol-5-yl)methyl]-2,3-dihydrospiro[furo[2,3-g][1,4]-benzodioxine-8,3′-indol]-2′(1′H)-one] | < 50% | 0.001 to 0.1 µM |  |
| O=C1N(Cc2ccc(-c3cccnc3)cc2)c2ccccc2C12COc1cc3c(cc12)CCO3 (stereo not drawn) [Example 11.16, 1′-(4-pyridin-3-ylbenzyl)-5,6-dihydrospiro[benzo[1,2-b:5,4-b′]difuran-3,3′-indol]-2′(1′H)-one] | > 50% |  | 0.1 to 1 µM |
| O=C1N(C[C@H]2CCCO2)c2cccc(CN3CCCC3)c2C12COc1cc3c(cc12)CCO3 (stereo partly drawn) [Example 11.38, 4′-(pyrrolidin-1-ylmethyl)-1′-[(2R)-tetrahydrofuran-2-ylmethyl]-5,6-dihydrospiro[benzo[1,2-b:5,4-b′]difuran-3,3′-indol]-2′(1′H)-one] | < 50% |  | 1 to 10 µM |
| COc1ccc(CN2C(=O)C3(COc4cc5c(cc43)OCCO5)c3c2ccc2ncsc32)cc1 (stereo not drawn) [Example 2.66, 6′-(4-methoxybenzyl)-2,3-dihydrospiro[furo[2,3-g][1,4]benzodioxine-8,8′-[1,3]thiazolo[5,4-e]indol]-7′(6′H)-one] | > 50% | 0.1 to 1 µM |  |
| O=C1N(Cc2ncccc2C(F)(F)F)c2ccccc2C12COc1cc3c(cc12)OCCC3 (stereo not drawn) [Example 5.29, 1-{[3-(trifluoromethyl)pyridin-2-yl]methyl}-7,8-dihydro-6H-spiro[furo[2,3-g]chromene-3,3′-indol]-2′(1′H)-one] | < 50% | 0.1 to 1 µM |  |
| O=C1Nc2cccc(Br)c2C12COc1cc3c(cc12)OCCO3 (stereo not drawn) [Example 3.32, 4′-bromo-2,3-dihydrospiro[furo[2,3-g][1,4]benzodioxine-8,3′-indol]-2′(1′H)-one] | < 50% | 0.1 to 1 µM |  |
| CN(C)C(=O)c1coc(CN2C(=O)C3(COc4cc5c(cc43)CCO5)c3ccccc32)n1 (stereo not drawn) [Example 13.4, N,N-dimethyl-2-[(2′-oxo-5,6-dihydrospiro[benzo[1,2-b:5,4-b′]difuran-3,3′-indol]-1′(2′H)-yl)methyl]-1,3-oxazole-4-carboxamide] | < 50% |  | 0.1 to 1 µM |
| COC(=O)c1coc(CN2C(=O)C3(COc4cc5c(cc43)CCO5)c3ccccc32)n1 (stereo not drawn) [Example 4.11, methyl 2-[(2′-oxo-5,6-dihydrospiro[benzo[1,2-b:5,4-b′]difuran-3,3′-indol]-1′(2′H)-yl)methyl]-1,3-oxazole-4-carboxylate] | < 50% | 0.001 to 0.1 µM |  |
| COc1ccc2c(c1)OCC21C(=O)N(CC2CCOCC2)c2ccccc21 (stereo not drawn) [Example 9.35, 6-methoxy-1′-(tetrahydro-2H-pyran-4-ylmethyl)spiro[1-benzofuran-3,3′-indol]-2′(1′H)-one] | > 50% | 0.1 to 1 µM |  |
| CN(C)Cc1cccc2c1C1(COc3cc4c(cc31)CCO4)C(=O)N2C[C@H]1CCCO1 (stereo partly drawn) [Example 11.37, 4′-[(dimethylamino)methyl]-1′-[(2R)-tetrahydrofuran-2-ylmethyl]-5,6-dihydrospiro[benzo[1,2-b:5,4-b′]difuran-3,3′-indol]-2′(1′H)-one] | < 50% |  | 1 to 10 µM |
| O=C(NC1CC1)c1coc(CN2C(=O)C3(COc4cc5c(cc43)OCO5)c3ccccc32)n1 (stereo not drawn) [Example 13.5, N-cyclopropyl-2-[(2′-oxospiro[furo[2,3-f][1,3]benzodioxole-7,3′-indol]-1′(2′H)-yl)methyl]-1,3-oxazole-4-carboxamide] | > 50% |  | 0.001 to 0.1 µM |
| O=C1N(Cc2cc(Br)cs2)c2ccccc2C12COc1cc3c(cc12)OCO3 (stereo not drawn) [Example 1.7, 1′-[(4-bromo-2-thienyl)methyl]spiro[furo[2,3-f][1,3]benzodioxole-7,3′-indol]-2′(1′H)-one] | > 50% | 0.001 to 0.1 µM |  |
| CCN(CC)C(=O)CN1C(=O)C2(COc3cc4c(cc32)CCO4)c2ccccc21 (stereo not drawn) [Example 12.48, N,N-diethyl-2-(2′-oxo-5,6-dihydrospiro[benzo[1,2-b:5,4-b′]difuran-3,3′-indol]-1′(2′H)-yl)acetamide] | < 50% |  | 0.1 to 1 µM |
| O=C1Nc2ccccc2C12CCOc1cc3c(cc12)CCO3 (stereo not drawn) [Example 3.24, 2,3,6,7-tetrahydrospiro[furo[3,2-g]chromene-5,3′-indol]-2′(1′H)-one] | < 50% | 1 to 10 µM |  |
| O=C(NCC1CCCCC1)c1cccc(CN2C(=O)C3(COc4cc5c(cc43)CCO5)c3ccccc32)c1 (stereo not drawn) [Example 12, N-(cyclohexylmethyl)-3-[(2′-oxo-5,6-dihydrospiro[benzo[1,2-b:5,4-b′]difuran-3,3′-indol]-1′(2′H)-yl)methyl]benzamide] | > 50% |  | 0.1 to 1 µM |
| O=C1N(Cc2cnc(Cl)s2)c2ccccc2C12COc1cc3c(cc12)OCO3 (stereo not drawn) [Example 11, 1′-[(2-chloro-1,3-thiazol-5-yl)methyl]spiro[furo[2,3-f][1,3]benzodioxole-7,3′-indol]-2′(1′H)-one] | > 50% |  | 0.001 to 0.1 µM |
| O=C(NCCc1ccc(Cl)cc1)c1ccccc1CN1C(=O)C2(COc3cc4c(cc32)CCO4)c2ccccc21 (stereo not drawn) [Example 12.24, N-[2-(4-chlorophenyl)ethyl]-2-[(2′-oxo-5,6-dihydrospiro[benzo[1,2-b:5,4-b′]difuran-3,3′-indol]-1′(2′H)-yl)methyl]benzamide] | > 50% |  | 1 to 10 µM |
| O=C1N(Cc2ncccc2Cl)c2ccccc2C12COc1cc3c(cc12)OCCO3 (stereo not drawn) [Example 4.112, 1-[(3-chloropyridin-2-yl)methyl]-2,3-dihydrospiro[furo[2,3-g][1,4]benzodioxine-8,3′-indol]-2′(1′H)-one] | > 50% | 0.001 to 0.1 µM |  |
